Source: patent US20250152559A1, “METHODS FOR TREATING MYC-AMPLIFIED CANCER” (The Governing Council of the University of Toronto, priority 2023, published 2025)

System: ERK1/2, c-Jun and 4EBP1 phosphorylation in SU_MB002 cells
Experiment: Phosphokinome proteome profiler array and time-course Western blotting
Type: cell-based, human
Description: To identify signaling changes accompanying DHODH inhibition in an unbiased fashion, changes in the phosphokinome of SU_MB002 cells were measured after treatment with BAY. […] Time-course Western blotting confirmed that ERK1/2 becomes phosphorylated within 24 h of BAY treatment, peaks at 48 h, and then decreases in expression at 72 h (FIG. 3I-J). […] These findings corroborated previous work that had implicated ERK1/2 silencing of mTORC1-mediated translation in activating apoptosis in cancer cells under severe metabolic stress^38. Indeed, both pharmacological inhibition or DHODH KO in G3MB-MYC induced both Go cell cycle arrest, determined via propidium iodide assessment of DNA content, (FIG. 3K, FIG. 8N) and apoptosis, determined via cleaved caspase 3 expression (FIG. 3I-J, FIG. 8M) and Annexin V staining (FIG. 3L, FIG. 8O). Such findings were also consistent with the enrichment of the hallmark apoptosis gene set in DHODH KO SU_MB002 cells (FIG. 3G). […] Pyrimidine starvation induces a metabolic stress response, which activates ERK1/2-mediated signaling, leading to suppression of mTORC1 activity, and initiation of apoptosis.
Protein lysates were isolated from approximately 500,000-1,000,000 cells. Pellets were rinsed with PBS and then lysed in RIPA buffer containing HALT™ protease inhibitor cocktail (ThermoFisher). Protein concentrations were quantified using the Bradford Assay (BioRad). Protein size was resolved via SDS-PAGE and then transferred to PVDF for immunoblotting. Rabbit polyclonal anti-DHODH (Cell Signaling Technologies; catalogue #80981), rabbit monoclonal anti-EGR1 (Cell Signaling Technologies; catalogue #4145), rabbit polyclonal anti-phospho-ERK1/2 Thr202/Tyr204 (Cell Signaling Technologies; catalogue #9101), rabbit monoclonal anti-phospho-4E-BP1 Thr37/46 (Cell Signaling Technologies; catalogue #2855) were used at a 1:1000 dilution. Mouse monoclonal anti-GAPDH (Abcam; catalogue #ab8245) was used at a 1:5000 dilution. For development, horse-radish peroxidase-conjugated secondary anti-mouse (BioRad; catalogue #1706516) and anti-rabbit antibodies (BioRad; catalogue #1706515) were used with BioRad Clarity ECL reagents. Quantification was performed by analyzing mean pixel density of each band and then normalizing to GAPDH loading control. The proteome profiler array was obtained from R&D systems (catalogue ARY003C) and performed according to manufacturing guidelines, using 400 μg cellular lysate for each sample.

[1] = SU_MB002, BAY-treated vs vehicle, 48 h
[2] = SU_MB002, time-course Western blotting

CCn1c(CO)nn(-c2cc(O[C@@H](C)C(F)(F)F)c(C(=O)Nc3c(F)cccc3Cl)cc2F)c1=O [BAY2402234]
phosphorylation of ERK1/2 (T202/Y204; T185/Y187) [1]: Increased phosphorylation
phosphorylation of c-Jun (S63) [1]: Increased phosphorylation
time of peak ERK1/2 phosphorylation [2]: 48 h
time until ERK1/2 becomes phosphorylated [2]: ≤ 24 h
phosphorylation of 4EBP1 (time-course BAY treatment): decreased in a time-dependent fashion
